36 compounds from patent publication US10323036B2 (Nimbus Lakshmi, Inc., priority 2016, dated 2019) can be followed below.

Sequence of human TYK2 (JH2domain-pseudokinase) (P29597 556-888): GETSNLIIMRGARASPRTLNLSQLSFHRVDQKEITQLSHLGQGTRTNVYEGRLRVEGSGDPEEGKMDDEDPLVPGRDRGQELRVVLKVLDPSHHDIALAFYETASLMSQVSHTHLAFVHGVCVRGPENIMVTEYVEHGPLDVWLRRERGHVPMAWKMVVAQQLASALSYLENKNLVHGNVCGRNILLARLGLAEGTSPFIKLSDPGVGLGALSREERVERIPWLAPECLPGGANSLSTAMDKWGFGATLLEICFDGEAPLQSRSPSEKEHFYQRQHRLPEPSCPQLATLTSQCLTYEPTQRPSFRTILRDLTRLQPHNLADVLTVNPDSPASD

This assay addresses human TYK2 (JH2domain-pseudokinase) (Homo sapiens (Human), UniProt P29597). Put plainly: TYK2 JH2 Domain Binding Assay (KINOMEscan). To be noted: Table 4, JH2 binding assay; read-out: JH2 Kd.
For orientation: Kd means the constant that tells how readily two partners part at equilibrium. For `COCc1ccnc(Nc2cc(Nc3cccc(-c4ncn(C)n4)c3OC)c3c(=O)n(C)[nH]c3n2)c1` [Compound I-15, 4-((2-methoxy-3-(1-methyl-1H-1,2,4-triazol-3-yl)phenyl)amino)-6-((4-(methoxymethyl)pyridin-2-yl)amino)-2-methyl-1,2-dihydro-3H-pyrazolo[3,4-b]pyridin-3-one], the dissociation constant Kd lay in the range of 0.1 to 0.5 nM.
To `COc1c(Nc2cc(Nc3ccc(C)cn3)nc3[nH]n(C)c(=O)c23)cccc1-c1ncn(C)n1` [Compound I-16, 4-((2-methoxy-3-(1-methyl-1H-1,2,4-triazol-3-yl)phenyl)amino)-2-methyl-6-((5-methylpyridin-2-yl)amino)-1H-pyrazolo[3,4-b]pyridin-3(2H)-one] belongs 0.1 to 0.5 nM; to `COc1c(Nc2cc(Nc3ccccn3)nc3[nH]n(C)c(=O)c23)cccc1-c1ncn(C)n1` [Compound I-17, 4-((2-methoxy-3-(1-methyl-1H-1,2,4-triazol-3-yl)phenyl)amino)-2-methyl-6-(pyridin-2-ylamino)-1,2-dihydro-3H-pyrazolo[3,4-b]pyridin-3-one], < 0.1 nM; to `COc1c(Nc2cc(Nc3cc(C)ccn3)nc3[nH]n(C)c(=O)c23)cccc1-c1ncn(C)n1` [Compound I-18, 4-((2-methoxy-3-(1-methyl-1H-1,2,4-triazol-3-yl)phenyl)amino)-2-methyl-6-((4-methylpyridin-2-yl)amino)-1,2-dihydro-3H-pyrazolo[3,4-b]pyridin-3-one], 0.1 to 0.5 nM.
The figure for `COc1c(Nc2cc(Nc3cc(CO)ccn3)nc3[nH]n(C)c(=O)c23)cccc1-c1ncn(C)n1` [Compound I-19, 6-((4-(hydroxymethyl)pyridin-2-yl)amino)-4-((2-methoxy-3-(1-methyl-1H-1,2,4-triazol-3-yl)phenyl)amino)-2-methyl-1,2-dihydro-3H-pyrazolo[3,4-b]pyridin-3-one] is 1 to 10 nM; for `COc1c(Nc2cc(Nc3ccc(N4CCOCC4)cn3)nc3[nH]n(C)c(=O)c23)cccc1-c1ncn(C)n1` [Compound I-20, 4-((2-methoxy-3-(1-methyl-1H-1,2,4-triazol-3-yl)phenyl)amino)-2-methyl-6-((5-morpholinopyridin-2-yl)amino)-1,2-dihydro-3H-pyrazolo[3,4-b]pyridin-3-one] it is 0.1 to 0.5 nM; for `COc1c(Nc2cc(Nc3cc(C)c(F)cn3)nc3[nH]n(C)c(=O)c23)cccc1-c1ncn(C)n1` [Compound I-21, 6-((5-fluoro-4-methylpyridin-2-yl)amino)-4-((2-methoxy-3-(1-methyl-1H-1,2,4-triazol-3-yl)phenyl)amino)-2-methyl-1,2-dihydro-3H-pyrazolo[3,4-b]pyridin-3-one] it is 0.1 to 0.5 nM.
To `COc1c(Nc2cc(Nc3cc(C)nc(C)n3)nc3[nH]n(C)c(=O)c23)cccc1-c1ncn(C)n1` [Compound I-22, 6-((2,6-dimethylpyrimidin-4-yl)amino)-4-((2-methoxy-3-(1-methyl-1H-1,2,4-triazol-3-yl)phenyl)amino)-2-methyl-1,2-dihydro-3H-pyrazolo[3,4-b]pyridin-3-one] belongs 0.5 to 1 nM; to `COc1c(Nc2cc(Nc3ccc(C)nn3)nc3[nH]n(C)c(=O)c23)cccc1-c1ncn(C)n1` [Compound I-23, 4-((2-methoxy-3-(1-methyl-1H-1,2,4-triazol-3-yl)phenyl)amino)-2-methyl-6-((6-methylpyridazin-3-yl)amino)-1,2-dihydro-3H-pyrazolo[3,4-b]pyridin-3-one], > 10 nM; to `COc1c(Nc2cc(Nc3ccc(N4CCCCC4)cn3)nc3[nH]n(C)c(=O)c23)cccc1-c1ncn(C)n1` [Compound I-24, 4-((2-methoxy-3-(1-methyl-1H-1,2,4-triazol-3-yl)phenyl)amino)-2-methyl-6-((5-(piperidin-1-yl)pyridin-2-yl)amino)-1,2-dihydro-3H-pyrazolo[3,4-b]pyridin-3-one], 0.1 to 0.5 nM.
Consider `COc1c(Nc2cc(Nc3ccc(C#N)cn3)nc3[nH]n(C)c(=O)c23)cccc1-c1ncn(C)n1` [Compound I-25, 6-((4-((2-methoxy-3-(1-methyl-1H-1,2,4-triazol-3-yl)phenyl)amino)-2-methyl-3-oxo-2,3-dihydro-1H-pyrazolo[3,4-b]pyridin-6-yl)amino)nicotinonitrile], for which the Kd lay within 0.1 to 0.5 nM.
Turning to `COc1c(Nc2cc(Cl)nc3[nH]n(C)c(=O)c23)cccc1-c1nnn(C)n1` [Compound I-27], the Kd is > 10 nM.
The figure for `COc1c(Nc2cc(Nc3cccc(C#N)n3)nc3[nH]n(C)c(=O)c23)cccc1-c1nnn(C)n1` [Compound I-28, 6-((4-((2-methoxy-3-(2-methyl-2H-tetrazol-5-yl)phenyl)amino)-2-methyl-3-oxo-2,3-dihydro-1H-pyrazolo[3,4-b]pyridin-6-yl)amino)picolinonitrile] is 1 to 10 nM; for `COc1c(Nc2cc(Nc3cc(C#N)ncn3)nc3[nH]n(C)c(=O)c23)cccc1-c1nnn(C)n1` [Compound I-29, 6-((4-((2-methoxy-3-(2-methyl-2H-tetrazol-5-yl)phenyl)amino)-2-methyl-3-oxo-2,3-dihydro-1H-pyrazolo[3,4-b]pyridin-6-yl)amino)pyrimidine-4-carbonitrile] it is 0.1 to 0.5 nM.
For `COc1c(Nc2cc(Nc3cccc(C#N)n3)nc3[nH]n(C)c(=O)c23)cccc1-c1ncn(C)n1` [Compound I-30, 6-((4-((2-methoxy-3-(1-methyl-1H-1,2,4-triazol-3-yl)phenyl)amino)-2-methyl-3-oxo-2,3-dihydro-1H-pyrazolo[3,4-b]pyridin-6-yl)amino)picolinonitrile], the Kd is > 10 nM.
To `COc1c(Nc2cc(Nc3cc(C#N)ncn3)nc3[nH]n(C)c(=O)c23)cccc1-c1ncn(C)n1` [Compound I-31, 6-((4-((2-methoxy-3-(1-methyl-1H-1,2,4-triazol-3-yl)phenyl)amino)-2-methyl-3-oxo-2,3-dihydro-1H-pyrazolo[3,4-b]pyridin-6-yl)amino)pyrimidine-4-carbonitrile] belongs < 0.1 nM; to `COc1c(Nc2cc(Nc3cc(C#N)ccn3)nc3[nH]n(C)c(=O)c23)cccc1-c1nnn(C)n1` [Compound I-32, 2-((4-((2-methoxy-3-(2-methyl-2H-tetrazol-5-yl)phenyl)amino)-2-methyl-3-oxo-2,3-dihydro-1H-pyrazolo[3,4-b]pyridin-6-yl)amino)isonicotinonitrile], > 10 nM; to `COc1c(C#N)cccc1Nc1cc(NC(=O)C2CC2)nc2[nH]n(C)c(=O)c12` [Compound I-33], > 10 nM.
To `COc1c(C#N)cccc1Nc1cc(Nc2ccc(C)cn2)nc2[nH]n(C)c(=O)c12` [Compound I-34] belongs > 10 nM; to `COCc1ccnc(Nc2cc(Nc3cccc(C#N)c3OC)c3c(=O)n(C)[nH]c3n2)c1` [Compound I-35], > 10 nM; to `COc1c(C#N)cccc1Nc1cc(Nc2ccc(N3CCOCC3)cn2)nc2[nH]n(C)c(=O)c12` [Compound I-36], > 10 nM.
For the compound `COc1c(C#N)cccc1Nc1cc(Nc2cc(C)c(F)cn2)nc2[nH]n(C)c(=O)c12` [Compound I-37], the Kd was > 10 nM.
To `COc1c(C#N)cccc1Nc1cc(Nc2ccc(C)nn2)nc2[nH]n(C)c(=O)c12` [Compound I-38] belongs > 10 nM; to `COc1c(C#N)cccc1Nc1cc(Nc2cc(C)nc(C)n2)nc2[nH]n(C)c(=O)c12` [Compound I-39], > 10 nM.
To `COc1c(C#N)cccc1Nc1cc(Nc2ccc(N3CCCCC3)cn2)nc2[nH]n(C)c(=O)c12` [Compound I-40] belongs > 10 nM; to `COc1c(C#N)cccc1Nc1cc(Nc2ccc(C#N)cn2)nc2[nH]n(C)c(=O)c12` [Compound I-41], > 10 nM; to `COc1c(Nc2cc(Nc3cc(C)ccn3)nc3[nH]n(C)c(=O)c23)cccc1-c1nccs1` [Compound I-43], > 10 nM.
The figure for `COc1cc(CO)ccc1Nc1cc(NC(=O)C2CC2)nc2[nH]n(C)c(=O)c12` [Compound I-44] is 1 to 10 nM; for `COCc1ccc(Nc2cc(NC(=O)C3CC3)nc3[nH]n(C)c(=O)c23)c(OC)c1` [Compound I-45, N-(4-((2-methoxy-4-(methoxymethyl)phenyl)amino)-2-methyl-3-oxo-2,3-dihydro-1H-pyrazolo[3,4-b]pyridin-6-yl)cyclopropanecarboxamide] it is 1 to 10 nM.
In the case of `COc1c(Nc2cc(NC(=O)C3CC3)nc3[nH]n(C)c(=O)c23)cccc1-c1nc(C)nn1C` [Compound I-46, N-(4-((3-(1,3-dimethyl-1H-1,2,4-triazol-5-yl)-2-methoxyphenyl)amino)-2-methyl-3-oxo-2,3-dihydro-1H-pyrazolo[3,4-b]pyridin-6-yl)cyclopropanecarboxamide], the Kd lay in the range of 0.5 to 1 nM.
Take `COc1c(Nc2cc(Nc3cc(C)ccn3)nc3[nH]n(C)c(=O)c23)cccc1-c1ncc(C)s1` [Compound I-47, 4-((2-methoxy-3-(5-methylthiazol-2-yl)phenyl)amino)-2-methyl-6-((4-methylpyridin-2-yl)amino)-1,2-dihydro-3H-pyrazolo[3,4-b]pyridin-3-one]: the Kd was > 10 nM.
To `COc1c(F)cccc1Nc1cc(NC(=O)C2CC2)nc2[nH]n(C)c(=O)c12` [Compound I-48, N-(4-((3-fluoro-2-methoxyphenyl)amino)-2-methyl-3-oxo-2,3-dihydro-1H-pyrazolo[3,4-b]pyridin-6-yl)cyclopropanecarboxamide] belongs 0.5 to 1 nM; to `COc1c(Cl)cccc1Nc1cc(NC(=O)C2CC2)nc2[nH]n(C)c(=O)c12` [Compound I-49, N-(4-((3-chloro-2-methoxyphenyl)amino)-2-methyl-3-oxo-2,3-dihydro-1H-pyrazolo[3,4-b]pyridin-6-yl)cyclopropanecarboxamide], 0.5 to 1 nM.
To `COc1cc(C2CC2)ccc1Nc1cc(NC(=O)C2CC2)nc2[nH]n(C)c(=O)c12` [Compound I-50, N-(4-((4-cyclopropyl-2-methoxyphenyl)amino)-2-methyl-3-oxo-2,3-dihydro-1H-pyrazolo[3,4-b]pyridin-6-yl)cyclopropanecarboxamide] belongs 1 to 10 nM.
The figure for `COc1cc(C2CCC2)ccc1Nc1cc(NC(=O)C2CC2)nc2[nH]n(C)c(=O)c12` [Compound I-51] is > 10 nM; for `COc1c(Nc2cc(NC(=O)C3CC3)nc3[nH]n(C)c(=O)c23)cccc1-c1nnnn1C` [Compound I-52] it is 1 to 10 nM.
